Experimental data from publication PMC12713470, “Design and Synthesis of Novel Chalcone Derivatives Targeting Bladder and Liver Cancer: Cytotoxicity Evaluation and Preliminary Mechanistic Studies” (ACS Omega, 2025).
Like-named read-outs stand apart in the source and are kept apart here.

Key:
[1] = test system: HepG2: human liver hepatocellular carcinoma cells; design: method as in PMID 37944413; settings: hit compound, earlier study of the group; read-out: IC50 HepG2 (earlier work); cited from earlier work
[2] = test system: MRC-5: human lung fibroblast cells; experiment: MTT cytotoxicity assay on MRC-5 cells; type: cell-based; settings: MRC5, 24 h incubation, n = 3, ± standard deviation
Procedure: (§1) Cytotoxicity was determined using the MTT colorimetric assay, and half-maximal inhibitory concentrations (IC50, μM) were obtained for all cell lines (Table ). The selectivity index (SI) was calculated as the ratio of IC50 MRC-5/IC50 cancer cell line. Doxorubicin was employed as a positive control due to its broad-spectrum clinical use, either alone or in combination, against hepatocellular, ovarian, cervical, and bladder cancers. −
(§2) In vitro biological assays were performed by using five human cell lines for cytotoxicity evaluation. HepG2 cells (ATCC HB-8065), derived from a human hepatocellular carcinoma of the liver (person), were cultured in Dulbecco’s modified Eagle medium (DMEM) supplemented with 5% fetal bovine serum (FBS), penicillin/streptomycin (100 IU/mL), and amphotericin B (5 μg/mL), in a humidified incubator with 5% CO2 at 37 °C. These cells were plated at a concentration of 2.0 × 10^4 cells/well in 96-well microplates. MRC-5 cells (ATCC CCL-171), derived from human lung fibroblasts of a […] fetus, were cultured under the same conditions and plated at 1.0 × 10^4 cells/well. T24 cells (ATCC HTB-4), established from a transitional cell carcinoma of the bladder (person), were also cultured under identical conditions and plated at a density of 1.0 × 10^4 cells/well. TOV-21G cells (ATCC CRL-11730), derived from a primary malignant ovarian adenocarcinoma (person), were maintained in DMEM with the same supplementation and environmental conditions and plated at 5.0 × 10^4 cells/well. […]
(§3) HeLa, HepG2, MRC-5, T24, and TOV-21G cells were suspended in a culture medium supplemented with 5% fetal bovine serum (FBS) and seeded into 96-well microplates. The plates were incubated under a humidified atmosphere containing 5% CO2 at 37 °C for 24 h, allowing for adherence and monolayer formation. , Eight serial dilutions of the test samples, previously solubilized in dimethyl sulfoxide (DMSO), were prepared in DMEM supplemented with 1% FBS, covering a concentration range from […], and the results were converted to […]. The volume of DMSO in each well was limited to a final concentration not exceeding 2%. Following monolayer formation, the culture medium was aspirated and replaced with 100 μL of the diluted test samples and 100 μL of DMEM containing 1% FBS. The plates were then incubated under the same atmospheric and temperature conditions.
(§4) Two hours prior to end point reading, 20 μL of MTT [3-(4,5-dimethylthiazol-2-yl)-2,5-diphenyltetrazolium bromide] solution (1.0 mg/mL in sterile phosphate-buffered saline, Sigma-Aldrich) was added to each well. The incubation period following sample addition varied according to the cell line: 24 h for MRC-5, 48 h for T24, and 72 h for HeLa, HepG2, and TOV-21G. After the appropriate incubation, absorbance was measured by using a VICTOR X3 microplate reader (PerkinElmer), and data were processed with WorkOut 2.5 software at a wavelength of 490 nm. Formazan formation, resulting from the MTT reduction by metabolically active cells, was used as an indirect measure of cell viability. The percentage of cytotoxicity was calculated using the equation % cytotoxicity = [(A – B)/A] × 100, where A is the optical density (OD4 9 0) of untreated control cells and B is the OD4 9 0 of treated cells.
(§5) Cytotoxicity was expressed as the 50% cytotoxic concentration (CC5 0), representing the concentration of sample required to reduce cell viability by 50% relative to that of the untreated control.

[3] = test system: HepG2: human liver hepatocellular carcinoma cells; experiment: MTT cytotoxicity assay on HepG2 cells; type: cell-based; settings: for IC50: Homo sapiens, HepG2, MTT, 72 h incubation, n = 3, NA: noncytotoxic at the concentrations tested; for SI (HepG2): IC50 MRC-5/IC50 HepG2
Procedure: as §1, §2, §3, §4, §5

[4] = test system: TOV-21G: human ovarian adenocarcinoma cells; experiment: MTT cytotoxicity assay on TOV-21G cells; type: cell-based; settings: for IC50: Homo sapiens, TOV21G, MTT, 72 h incubation, n = 3, NA: noncytotoxic at the concentrations tested; for SI (TOV-21G): IC50 MRC-5/IC50 TOV-21G
Procedure: as §1, §2, §3, §4, §5

[5] = test system: T24: human urinary bladder carcinoma cells; experiment: MTT cytotoxicity assay on T24 cells; type: cell-based; settings: for IC50: Homo sapiens, T-24, MTT, 48 h incubation, n = 3, NA: noncytotoxic at the concentrations tested; for SI (T24): IC50 MRC-5/IC50 T24
Procedure: as §1, §2, §3, §4, §5

[6] = test system: HepG2 cells; design: method as in PMID 37944413; settings: hit compound, earlier study of the group; cited from earlier work
[7] = test system: HeLa: human cervical adenocarcinoma cells; experiment: MTT cytotoxicity assay on HeLa cells; type: cell-based; settings: for IC50: Homo sapiens, HeLa, MTT, 72 h incubation, n = 3, NA: noncytotoxic at the concentrations tested; for SI (HeLa): IC50 MRC-5/IC50 HeLa
Procedure: as §1, §2, §3, §4, §5

[8] = test system: human hepatocellular carcinoma (HCC) cells; design: method as in Tsai and colleagues; settings: subtoxic concentrations (5–20 μM); ref Tsai and colleagues; cited from earlier work

SMILES	IC50 [1] [µM]	IC50 [2] [µM]	IC50 [3] [µM]	SI (HepG2) [3]	IC50 [4] [µM]	SI (TOV-21G) [4]	IC50 [5] [µM]	SI (T24) [5]	HepG2 cell migration (earlier work) [6]	IC50 [7] [µM]	SI (HeLa) [7]	activity against TOV-21G relative to hit 1 ([4]; ratio of IC50 values, 1 vs 2)	migration and invasion of human hepatocellular carcinoma (HCC) cells [8]
CCCc1cc(/C=C/C(=O)c2ccc(C)cc2)c(O)c(OC)c1 [compound 1]	4.25	47.2 ± 1.3	4.2 ± 1.3	11.1	7.2 ± 1.3	6.5	> 161	<0.2	inhibiting HepG2 cell migration	–	–	–	–
CCCc1cc(/C=C/C(=O)c2ccc(C)cc2)c(OC(C)=O)c(OC)c1 [compound 2, (E)-2-Methoxy-6-(3-oxo-3-(p-toluyl)-prop-1-en-1-yl)-4-propylphenyl Acetate]	–	16.1 ± 1.5	4.2 ± 1.2	3.8	1.2 ± 1.1	13.3	59.5 ± 1.5	0.2	–	3.6 ± 1.3	4.7	over six times more active	–
CCCc1cc(/C=C/C(=O)c2ccc(C)cc2)c(OCc2ccccc2)c(OC)c1 [compound 4, (E)-3-(2-(Benzyloxy)-3-methoxy-5-propylphenyl)-1-(p-toluyl)-prop-2-en-1-one]	–	242.4 ± 2.4	16.9 ± 1.3	14.3	–	–	–	–	–	–	–	–	–
COc1cc([N+](=O)[O-])cc(/C=C/C(=O)c2ccc(C)cc2)c1O [compound 7, (E)-3-(2-Hydroxy-3-methoxy-5-nitrophenyl)-1-(p-tolyl)-prop-2-en-1-one]	–	28.1 ± 1.3	16.6 ± 1.5	1.6	23.8 ± 2.8	1.1	104 ± 1.9	0.2	–	26.6 ± 1.8	1.0	–	–
COc1cc(N)cc(/C=C/C(=O)c2ccc(C)cc2)c1O [compound 8, (E)-3-(5-Amino-2-hydroxy-3-methoxyphenyl)-1-(p-tolyl)-prop-2-en-1-one]	–	40.9 ± 2	–	–	53.1 ± 2.6	0.7	158.6 ± 1.4	0.2	–	11.5 ± 1.8	3.5	–	–
CCCc1cc(/C=C/C(=O)c2ccc(O)cc2)c(O)c(OC)c1 [compound 10, (E)-3-(2-Hydroxy-3-methoxy-5-propylphenyl)-1-(4-hydroxyphenyl)-prop-2-en-1-one]	–	5 ± 1.3	18.9 ± 1.6	0.2	7.2 ± 1.2	0.7	34.9 ± 1.4	0.1	–	17.9 ± 2	0.2	–	–
CCCc1cc(/C=C/C(=O)c2ccccc2)c(O)c(OC)c1 [compound 11, (E)-3-(2-Hydroxy-3-methoxy-5-propylphenyl)-1-phenylprop-2-en-1-one]	–	11 ± 1.2	4.6 ± 1.2	2.3	11.9 ± 1.5	0.9	9.2 ± 1.2	1.2	–	2.1 ± 1.1	5.2	–	–
CCCc1cc(/C=C/C(=O)c2ccc(C(=O)/C=C/c3cc(CCC)cc(OC)c3O)cc2)c(O)c(OC)c1 [compound 12, (2E,2′E)-1,1′-(1,4-Phenylene)-bis(3-(2-hydroxy-3-methoxy-5-propylphenyl)-prop-2-en-1-one)]	–	35 ± 1.5	–	–	33.7 ± 2.4	1.0	10.4 ± 1.7	3.3	–	20.4 ± 1.5	1.7	–	–
CCCc1cc(OC)c(O)c(C(=O)/C=C/c2ccccc2)c1 [compound 15, (E)-1-(2-Hydroxy-3-methoxy-5-propylphenyl)-3-phenylprop-2-en-1-one]	–	18.4 ± 1.9	16.1 ± 1.2	1.1	5.4 ± 1.2	3.3	18.4 ± 1.9	1	–	13.7 ± 1.5	1.3	–	–
CCCc1cc(OC)c(O)c(C(=O)/C=C/c2ccc(C)cc2)c1 [compound 16, (E)-1-(2-Hydroxy-3-methoxy-5-propylphenyl)-3-(p-tolyl)-prop-2-en-1-one]	–	7.7 ± 1.5	6.6 ± 1.4	1.1	10.9 ± 1.5	0.7	17.1 ± 2.1	0.4	–	12.8 ± 1.3	0.6	–	–
CCCc1cc(OC)c(O)c(C(=O)/C=C/c2ccc(O)cc2)c1 [compound 17, (E)-1-(2-Hydroxy-3-methoxy-5-propylphenyl)-3-(4-hydroxyphenyl)-prop-2-en-1-one]	–	12.7 ± 1.4	19.4 ± 1.4	0.6	39 ± 1.5	0.3	36.4 ± 1.5	0.3	–	114 ± 2.1	0.1	–	–
CCCc1cc(OC)c(O)c(C(=O)/C=C/c2ccc(F)cc2)c1 [compound 18, (E)-3-(4-Fluorophenyl)-1-(2-hydroxy-3-methoxy-5-propylphenyl)-prop-2-en-1-one]	–	11.5 ± 1.2	8.3 ± 1.2	1.3	4.8 ± 1.4	2.3	15.4 ± 1.5	0.7	–	4.1 ± 1.3	2.8	–	–
COc1cccc2c1C(=O)c1c(O)c3c(c(O)c1C2=O)C[C@@](O)(C(=O)CO)C[C@@H]3O[C@H]1C[C@H](N)[C@H](O)[C@H](C)O1 [doxorubicin, reference compound]	–	0.6 ± 1.2	0.06	–	0.5	1.3	4.4 ± 1.3	0.1	–	2.9 ± 1.1	0.2	–	–
C=CC(C)(C)c1cc(/C=C/C(=O)c2ccc(O)cc2)c(OC)cc1O [licochalcone A]	–	–	–	–	–	–	–	–	–	–	–	–	effectively inhibited migration and invasion
